Measurements as given in article PMC4601023, “Novel anticancer agent, SQAP, binds to focal adhesion kinase and modulates its activity” (Scientific Reports, 2015).

Assays:
SCP-2 (400–547) = target: T1, SCP-2 (400–547) (Homo sapiens, UniProt P22307); assay: SPR analysis, immobilized His-tagged SCP-2 (400-547); type: binding; settings: Biacore 3000, CM5 chip, 25 °C, read-out: dissociation constant (KD) for SCP-2
T1 construct: DNA encoding SCP-2 (400–547) was amplified; made in house; host or cells: E. coli Rosetta 2 (DE3) pLysS
T1 sequence (P22307 400-547): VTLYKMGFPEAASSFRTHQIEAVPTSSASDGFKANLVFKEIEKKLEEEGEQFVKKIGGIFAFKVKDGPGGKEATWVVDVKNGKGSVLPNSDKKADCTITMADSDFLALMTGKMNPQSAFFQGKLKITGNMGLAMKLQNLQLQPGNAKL
Description: (§1) SPR was utilized as an independent confirmation of the kinetic parameters between SQAP and the putative binding proteins. […] The recombinant proteins were then expressed in Escherichia coli and purified to homogeneity. In addition, full length, His-tagged ADRM1 and GST-tagged HR23B (GST-HR23B) were also used. The proteins were first immobilized on a CM5 sensor chip of the SPR biosensor (Biacore 3000). For GST-HR23B analysis, a GST protein was additionally immobilized and used as a control in order to eliminate possible nonspecific binding of SQAP. SQAP samples at different concentrations were then injected over the proteins immobilized on the sensor chip. As a negative control we used sulfoquynovosylpropanediol (SQP), which lacks the fatty acid moiety of SQAP (Fig. 1). […]
(§2) The binding kinetics of SCP-2, MFE-2, ADRM1, HR23B and FAK with SQAP and SQP were analyzed on a Biacore 3000 instrument (GE Healthcare, Little Chalfont, UK). […] The buffer of purified peptides was exchanged to HBS-P (150 mM NaCl, 0.005% Surfactant P20, 10 mM HEPES-NaOH pH 7.4) using a PD 10 column (GE Healthcare, Little Chalfont, UK) and the concentrations were quantified using DC protein assay kit (Bio-Rad Laboratories, Hercules, CA, USA). […] Kinetic parameters were determined by analyzing the data using BIAevaluation 4.1 software (GE Healthcare, Little Chalfont, UK).

ADRM1 = target: T2, ADRM1 (Homo sapiens, UniProt Q16186); assay: SPR analysis, immobilized full length His-ADRM1; type: binding; settings: Biacore 3000, CM5 chip, 25 °C, read-out: dissociation constant (KD) for ADRM1
T2 construct: ADRM1 and HR23B human full length proteins were purchased; His-tag; purchased ATgen (Gyeonggi-do, Korea)
T2 sequence (Q16186 whole entry): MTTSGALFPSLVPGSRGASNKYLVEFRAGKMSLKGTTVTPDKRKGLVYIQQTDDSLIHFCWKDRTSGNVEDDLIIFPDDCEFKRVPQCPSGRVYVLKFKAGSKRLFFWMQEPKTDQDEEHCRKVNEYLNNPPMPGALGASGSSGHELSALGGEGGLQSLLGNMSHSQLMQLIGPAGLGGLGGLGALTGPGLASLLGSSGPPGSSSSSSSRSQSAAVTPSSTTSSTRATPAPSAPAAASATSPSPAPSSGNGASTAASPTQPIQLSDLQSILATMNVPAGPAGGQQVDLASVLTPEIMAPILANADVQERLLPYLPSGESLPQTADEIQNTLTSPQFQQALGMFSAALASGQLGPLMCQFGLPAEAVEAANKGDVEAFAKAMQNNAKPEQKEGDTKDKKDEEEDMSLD
Description: as §1, §2

A549 cells = assay: Wound healing assay, A549; type: cell-based, human; settings: A549, 25 h, 1% FBS and fibronectin 10 μg/mL; control 46%
Method: Figure 6 SQAP inhibits cell migration in vitro. (A) HUVEC cells were seeded and grown to 100% confluence in 60-mm diameter dishes. After generating a single scratch in the monolayer, the cells were cultured for 11 h in medium containing 1% FBS and VEGF (50 ng/mL) in the presence or absence of SQAP. Photographs were taken immediately after 11 h. (B) The change in wound width was measured as described in the Materials and Methods. (C) A549 cells were seeded and grown to 100% confluence in 60-mm diameter dishes. After generating a single scratch in the monolayer, the cells cultured for the 25 h in media containing 1% FBS and fibronectin (10 μg/ml) treated with SQAP or vehicle. Photographs were collected immediately after wounding and after 25 h. (D) The change in wound width was measured as described in the Materials and Methods. Cell migration was additionally examined in 96 well plates. HUVEC (E) and A549 cells (F) were seeded and grown into confluence overnight. After removing the stoppers, the live cells were stained with CellTracker^TM Green and incubated for the indicated time. The fluorescent emission signal was obtained with a plate reader. […]
Wound healing assay was analyzed by microscope imaging. […] Wound diameters in the images were measured and percentage of wound size was calculated as follows: [wound diameter at 11 or 25 h/wound diameter at 0 h] x 100.

Kd (SCP-2 (400–547)): 15.6 µM | Kd (ADRM1): 9.65 µM
SMILES: CCCCCCCCCCCCCCCCCC(=O)OCCCO[C@H]1O[C@H](CS(=O)(=O)O)[C@@H](O)[C@H](O)[C@H]1O [SQAP, sulfoquynovosylacylpropanediol]
wound size (A549 cells): 68%
